Experimental data reported in patent publication US20250049970A1, “DLL3 TARGETING PEPTIDES AND CONSTRUCTS THEREOF” (MARIANA ONCOLOGY INC., priority 2023, published 2025).
*1 amine or outer side, *2 acyl side, *3 side chain or, on linkers, in order; H or OH if unused. Where a SMILES comes first, the peptide text is derived from it. Bridges are numbered along the chain shown (N, C = ends). [ ]: non-standard residue; d: D form. The star is where a group is joined. X9 = CSCC[C@H](NC(=O)c1ccc(CNC(=O)CN2CCN(CC(=O)O)CCN(CC(=O)O)CCN(CC(=O)O)CC2)cc1)C(=O)N[C@H](C(=O)N[C@@H](CCCCN*)C(=O)O)C(C)C; Ala(piperidin-4-yl) = O=C([C@H](CC1CCN([*:3])CC1)N[*:1])[*:2]; 2Nal = N[C@@H](Cc1ccc2ccccc2c1)C(=O)O; Gly(4-THP) = N[C@H](C(=O)O)C1CCOCC1; Nva(3-Et) = CCC(CC)[C@H](N)C(=O)O; Cha = N[C@@H](CC1CCCCC1)C(=O)O; Cba = N[C@@H](CC1CCC1)C(=O)O; Tle = CC(C)(C)[C@H](N)C(=O)O; Nle = CCCC[C@H](N)C(=O)O; Aze = O=C(O)[C@@H]1CCN1; CH2 = C([*:1])[*:2]; Sar = CNCC(=O)O

Molecular target: T1, DLL3 (Homo sapiens, UniProt Q9NYJ7)
T1 sequence (Q9NYJ7 27-618): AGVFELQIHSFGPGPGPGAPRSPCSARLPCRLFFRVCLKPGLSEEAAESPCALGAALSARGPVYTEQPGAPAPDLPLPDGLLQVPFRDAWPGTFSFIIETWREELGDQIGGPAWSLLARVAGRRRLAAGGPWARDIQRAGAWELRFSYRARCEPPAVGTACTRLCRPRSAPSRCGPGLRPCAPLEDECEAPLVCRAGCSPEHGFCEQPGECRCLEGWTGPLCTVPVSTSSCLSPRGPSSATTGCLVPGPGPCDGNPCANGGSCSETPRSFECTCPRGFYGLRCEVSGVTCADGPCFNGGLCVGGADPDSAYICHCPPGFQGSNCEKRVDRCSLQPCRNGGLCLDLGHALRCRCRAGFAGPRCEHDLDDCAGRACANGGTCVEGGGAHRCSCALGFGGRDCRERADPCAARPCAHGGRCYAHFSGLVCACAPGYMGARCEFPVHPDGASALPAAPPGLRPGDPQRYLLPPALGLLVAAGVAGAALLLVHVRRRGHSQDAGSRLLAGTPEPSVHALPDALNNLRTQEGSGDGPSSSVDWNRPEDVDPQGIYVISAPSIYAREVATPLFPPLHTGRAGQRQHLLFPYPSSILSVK
Assay: SPR KD, biotinylated human DLL3 on streptavidin chip (Table 8)
Design: biotin (biotinylated)
Details: biotinylated human DLL3 on streptavidin sensor chip, 25° C., 1:1 binding model; read-out: SPR KD
From the text: Biotinylated target ligand human DLL3 was immobilized on a streptavidin sensor chip. A reference surface was set up for nonspecific binding and refractive index changes. […] Sensorgram curves were fitted with 1:1 binding model, and affinity and kinetic parameters were obtained using Biacore Insight evaluation 4.0. software.

First: CC[C@H](C)[C@H](NC(=O)[C@@H](NC(=O)[C@H](Cc1c[nH]c2ccccc12)NC(C)=O)[C@@H](C)O)C(=O)N[C@H]1CSSC[C@@H](C(=O)N[C@@H](Cc2c[nH]c3ccccc23)C(=O)N(C)CC(N)=O)NC(=O)[C@H](CC(=O)O)NC(=O)[C@H](Cc2cnc[nH]2)NC(=O)[C@H](Cc2c[nH]c3ccccc23)NC(=O)[C@H](CC(N)=O)NC(=O)[C@H](CC(N)=O)NC1=O [compound 334, Ac-W-T-I-C(3)-N-N-W-H-D-C(3)-W-(Sar)-CONH2] (Ac-WTICNNWHDCW[Sar]-NH2; disulfide 4-10)
Second: CC[C@H](C)[C@H](NC(=O)[C@@H](NC(=O)[C@H](Cc1c[nH]c2ccccc12)NC(C)=O)[C@@H](C)O)C(=O)N[C@H]1CSSC[C@@H](C(=O)N[C@@H](Cc2c[nH]c3ccccc23)C(=O)N2CC[C@H]2C(N)=O)NC(=O)[C@H](CC(=O)O)NC(=O)[C@H](Cc2cnc[nH]2)NC(=O)[C@H](Cc2c[nH]c3ccccc23)NC(=O)[C@H](CC(N)=O)NC(=O)[C@H](CC(N)=O)NC1=O [compound 335, Ac-W-T-I-C(3)-N-N-W-H-D-C(3)-W-(Aze)-CONH2] (Ac-WTICNNWHDCW[Aze]-NH2; disulfide 4-10)
The Kd of the first is higher: 10 to 100 nM for the first, 1 to 10 nM for the second. The second binds more tightly here.

`CC(=O)N[C@@H](Cc1c[nH]c2ccccc12)C(=O)N[C@H](C(=O)N[C@H](C(=O)N[C@H]1CSSC[C@@H](C(=O)N[C@@H](Cc2c[nH]c3ccccc23)C(=O)N2CCC[C@H]2C(N)=O)NC(=O)[C@H](CC(=O)O)NC(=O)[C@H](Cc2cnc[nH]2)NC(=O)[C@H](Cc2c[nH]c3ccccc23)NC(=O)[C@H](CC(N)=O)NC(=O)[C@H](CC(N)=O)NC1=O)C(C)(C)C)[C@@H](C)O` [compound 336, Ac-W-T-(Tbg)-C(3)-N-N-W-H-D-C(3)-W-P-CONH2] (Ac-WT[Tle]CNNWHDCWP-NH2; disulfide 4-10) and `CCC(CC)[C@H](NC(=O)[C@@H](NC(=O)[C@H](Cc1c[nH]c2ccccc12)NC(C)=O)[C@@H](C)O)C(=O)N[C@H]1CSSC[C@@H](C(=O)N[C@@H](Cc2c[nH]c3ccccc23)C(=O)N2CCC[C@H]2C(N)=O)NC(=O)[C@H](CC(=O)O)NC(=O)[C@H](Cc2cnc[nH]2)NC(=O)[C@H](Cc2c[nH]c3ccccc23)NC(=O)[C@H](CC(N)=O)NC(=O)[C@H](CC(N)=O)NC1=O` [compound 337, Ac-W-T-(Env)-C(3)-N-N-W-H-D-C(3)-W-P-CONH2] (Ac-WT[Nva(3-Et)]CNNWHDCWP-NH2; disulfide 4-10) fall in the same range of Kd: 1 to 10 nM for the first, 1 to 10 nM for the second.

`CC(=O)N[C@@H](Cc1c[nH]c2ccccc12)C(=O)N[C@H](C(=O)N[C@H](C(=O)N[C@H]1CSSC[C@@H](C(=O)N[C@@H](Cc2c[nH]c3ccccc23)C(=O)N2CCC[C@H]2C(N)=O)NC(=O)[C@H](CC(=O)O)NC(=O)[C@H](Cc2cnc[nH]2)NC(=O)[C@H](Cc2c[nH]c3ccccc23)NC(=O)[C@H](CC(N)=O)NC(=O)[C@H](CC(N)=O)NC1=O)C1CCOCC1)[C@@H](C)O` [compound 338, Ac-W-T-(THPG)-C(3)-N-N-W-H-D-C(3)-W-P-CONH2] (Ac-WT[Gly(4-THP)]CNNWHDCWP-NH2; disulfide 4-10) and `CC(=O)N[C@@H](Cc1c[nH]c2ccccc12)C(=O)N[C@H](C(=O)N[C@@H](CC1CCC1)C(=O)N[C@H]1CSSC[C@@H](C(=O)N[C@@H](Cc2c[nH]c3ccccc23)C(=O)N2CCC[C@H]2C(N)=O)NC(=O)[C@H](CC(=O)O)NC(=O)[C@H](Cc2cnc[nH]2)NC(=O)[C@H](Cc2c[nH]c3ccccc23)NC(=O)[C@H](CC(N)=O)NC(=O)[C@H](CC(N)=O)NC1=O)[C@@H](C)O` [compound 341, Ac-W-T-(CBA)-C(3)-N-N-W-H-D-C(3)-W-P-CONH2] (Ac-WT[Cba]CNNWHDCWP-NH2; disulfide 4-10) fall in the same range of Kd: 1 to 10 nM for the first, 1 to 10 nM for the second.

`CCCC[C@H](NC(=O)[C@@H](NC(=O)[C@H](Cc1c[nH]c2ccccc12)NC(C)=O)[C@@H](C)O)C(=O)N[C@H]1CSSC[C@@H](C(=O)N[C@@H](Cc2c[nH]c3ccccc23)C(=O)N2CCC[C@H]2C(N)=O)NC(=O)[C@H](CC(=O)O)NC(=O)[C@H](Cc2cnc[nH]2)NC(=O)[C@H](Cc2c[nH]c3ccccc23)NC(=O)[C@H](CC(N)=O)NC(=O)[C@H](CC(N)=O)NC1=O` [compound 339, Ac-W-T-(Nle)-C(3)-N-N-W-H-D-C(3)-W-P-CONH2] (Ac-WT[Nle]CNNWHDCWP-NH2; disulfide 4-10) and `CC(=O)N[C@@H](Cc1c[nH]c2ccccc12)C(=O)N[C@H](C(=O)N[C@@H](CC1CCCCC1)C(=O)N[C@H]1CSSC[C@@H](C(=O)N[C@@H](Cc2c[nH]c3ccccc23)C(=O)N2CCC[C@H]2C(N)=O)NC(=O)[C@H](CC(=O)O)NC(=O)[C@H](Cc2cnc[nH]2)NC(=O)[C@H](Cc2c[nH]c3ccccc23)NC(=O)[C@H](CC(N)=O)NC(=O)[C@H](CC(N)=O)NC1=O)[C@@H](C)O` [compound 340, Ac-W-T-(CHA)-C(3)-N-N-W-H-D-C(3)-W-P-CONH2] (Ac-WT[Cha]CNNWHDCWP-NH2; disulfide 4-10) fall in the same range of Kd: 1 to 10 nM for the first, 1 to 10 nM for the second.

First: CC[C@H](C)[C@H](NC(=O)[C@@H](NC(=O)[C@H](Cc1c[nH]c2ccccc12)NC(C)=O)[C@@H](C)O)C(=O)N[C@H]1CSCSC[C@@H](C(=O)N[C@@H](Cc2c[nH]c3ccccc23)C(=O)N2CCC[C@H]2C(N)=O)NC(=O)[C@H](CC(=O)O)NC(=O)[C@H](Cc2cnc[nH]2)NC(=O)[C@H](Cc2c[nH]c3ccccc23)NC(=O)[C@H](CC(N)=O)NC(=O)[C@H](CC(N)=O)NC1=O [compound 343] (Ac-WTICNNWHDCWP-NH2; linker 4-10 via CH2)
Second: CSCC[C@H](NC(=O)c1ccc(CNC(=O)CN2CCN(CC(=O)O)CCN(CC(=O)O)CCN(CC(=O)O)CC2)cc1)C(=O)N[C@H](C(=O)N[C@@H](CCCCNC(=O)CC[C@@H]1NC(=O)[C@H](Cc2ccc3ccccc3c2)NC(=O)[C@H](CC(N)=O)NC(=O)[C@H](CC2CCNCC2)NC(=O)[C@@H](NC(=O)[C@@H](NC(=O)[C@@H](NC(=O)[C@H](Cc2c[nH]c3ccccc23)NC(C)=O)[C@@H](C)O)C(C)(C)C)CSSC[C@@H](C(=O)N[C@@H](Cc2c[nH]c3ccccc23)C(=O)N2CCC[C@H]2C(N)=O)NC(=O)[C@H](CC(=O)O)NC1=O)C(=O)O)C(C)C [compound 377] (Ac-WT[Tle]C[Ala(piperidin-4-yl)]N[2Nal]E(X9)DCWP-NH2; disulfide 4-10)
The Kd of the first is higher: 10 to 100 nM for the first, 1 to 10 nM for the second. The second binds more tightly here.

Molecule `CSCC[C@H](NC(=O)c1ccc(CNC(=O)CN2CCN(CC(=O)O)CCN(CC(=O)O)CCN(CC(=O)O)CC2)cc1)C(=O)N[C@H](C(=O)N[C@@H](CCCCNC(=O)CC[C@@H]1NC(=O)[C@H](Cc2ccc3ccccc3c2)NC(=O)[C@H](CC(N)=O)NC(=O)[C@H](CC2CCNCC2)NC(=O)[C@@H](NC(=O)[C@@H](NC(=O)[C@@H](NC(=O)[C@H](Cc2c[nH]c3ccccc23)NC(C)=O)[C@@H](C)O)C2CCOCC2)CSSC[C@@H](C(=O)N[C@@H](Cc2c[nH]c3ccccc23)C(=O)N2CCC[C@H]2C(N)=O)NC(=O)[C@H](CC(=O)O)NC1=O)C(=O)O)C(C)C` [compound 378, Ac-W-T-(THPG)-C(3)-[3-(4-piperidinyl)-Ala]-N-(2Nal)-[Glu(gLys(OH)-Val-Met-AmBz-DOTA)]-D-C(3)-W-P-CONH2] (Ac-WT[Gly(4-THP)]C[Ala(piperidin-4-yl)]N[2Nal]E(X9)DCWP-NH2; disulfide 4-10) has a Kd of 1 to 10 nM.
